Results on one molecule are retold here after patent publication US20140038289A1, “NONADHESIVE SPHERE CELL CULTURE CONTAINER, SYSTEM, AND METHOD” (NATIONAL DEFENSE MEDICAL CENTER, priority 2012, published 2014).

Holding throughout (assay type): cell-based
Assay [1] has as its system human tongue cancer cell line SAS. The assay is described as follows: Chemosensitivity assay (MTS), SAS parental cells and spheres. The following applies: Cisplatin doses up to 200 μM for 48 hours, FIG. 4(B). The protocol: (§1) Cells were seeding in 10-cm cell culture dish at a density of 1×10^6 cells/dish. For the chemosensitivity assay, cells were treated with 10 to 200 μM Cisplatin (Sigma, St Louis, Mo., U.S.A.) for 48 hours. For the radiosensitivity assay, cells were irradiated using a CyberKnife® radiosurgery system (Accuray, Sunnyvale, Calif., U.S.A.) to deliver different doses (2-10 Gy). Relative survival fraction of cells was determined by MTS assay using the CellTiter® 96 Aqueous One Solution Cell Proliferation Assay kit (Promega, Madison, Wis., U.S.A.) after 36 hours of radiation treatment. Please refer to FIG. 4(A), which depicts the survival (%) of SAS and OECM-1 parental cells and their spheres after radiation treatment, and cell viability was evaluated after these cells were treated with radiation doses up to 10 Gy for 36 hours and were subject to a MTS assay. In FIG. 4(A), SAS and OECM-1 spheres were more radioresistant than their parental cells. Please refer to FIG. 4(B), which depicts the survival (%) of SAS and OECM-1 parental cells and their spheres after the Cisplatin treatment, and cell viability was evaluated after these cells were treated with Cisplatin doses up to 200 μM for 48 hours and were subject to a MTS (3-(4,5-dimethylthiazol-2-yl)-5-(3-carboxymethoxyphenyl)-2-(4-sulfophenyl)-2H-tetrazolium) assay.

The subject of assay [2] is human oral squamous carcinoma cell line OECM-1. The assay can be described thus: Chemosensitivity assay (MTS), OECM-1 parental cells and spheres. The following applies: Cisplatin doses up to 200 μM for 48 hours, FIG. 4(B). On the procedure:
as §1

Assay [3] deals with human tongue cancer cell line SAS. The assay can be described thus: Combined chemo- and radiotherapy (CCRT) treatment, SAS parental cells and spheres. The following applies: 20 μM Cisplatin for 24 hours followed by radiotherapy, FIG. 4(C). The protocol: (§2) Cells were seeding in 10-cm cell culture dish at a density of 1×10^6 cells/dish. For the chemosensitivity assay, cells were treated with 10 to 200 μM Cisplatin (Sigma, St Louis, Mo., U.S.A.) for 48 hours. For the radiosensitivity assay, cells were irradiated using a CyberKnife® radiosurgery system (Accuray, Sunnyvale, Calif., U.S.A.) to deliver different doses (2-10 Gy). Relative survival fraction of cells was determined by MTS assay using the CellTiter® 96 Aqueous One Solution Cell Proliferation Assay kit (Promega, Madison, Wis., U.S.A.) after 36 hours of radiation treatment. To imitate the clinical condition, a combined chemo- and radiotherapy (CCRT) treatment was administered on SAS and OECM-1 parental cells and their spheres. Please refer to FIG. 4(C), which depicts the survival (%) of SAS and OECM-1 parental cells and their spheres after Cisplatin treatment followed by radiation treatment. This assay was performed by treating cells with chemotherapy using 20 μM Cisplatin for 24 hours followed by radiotherapy. […] Please refer to FIG. 4(D), which depicts the survival (%) of SAS and OECM-1 parental cells and their spheres after radiation treatment followed by Cisplatin treatment. […]

For assay [4], the system named is human oral squamous carcinoma cell line OECM-1. The assay is described as follows: Combined chemo- and radiotherapy (CCRT) treatment, OECM-1 parental cells and spheres. The following applies: 20 μM Cisplatin for 24 hours followed by radiotherapy, FIG. 4(C). On the procedure:
as §2

Turning to `N.N.[Cl][Pt][Cl]` [Cisplatin], the “survival (%) after Cisplatin treatment, spheres vs parental cells” value in assay [1] and in assay [2] was “spheres were more resistant to Cisplatin than their parental cells” each time. Besides, the “survival (%) after Cisplatin treatment followed by radiation treatment, vs single treatment” value in assay [3] was “more effective in reducing the survival rate of the parental cells and spheres compared with the single treatment”; in assay [4], “more effective in reducing the survival rate of the parental cells and spheres compared with the single treatment”.
